# Laboratory results taken from ChEMBL document CHEMBL1144365, “Benzodipyrazoles: a new class of potent CDK2 inhibitors” (Bioorg Med Chem Lett, 2005).
# Target: not listed separately
# Assay: Inhibition of Glycogen synthase kinase-3 beta
row,IC50 [nM],Compound
1,> 10000,CC(C)CC1Cc2c[nH]nc2-c2c[nH]nc21 (configuration not stated)
2,460,Cc1ccc(-n2nc(C(N)=O)c3c2-c2c[nH]nc2CC3)cc1
3,23,Cc1ccc(-n2nc(C(N)=O)c3ccc4[nH]ncc4c32)cc1

# Target: Cyclin-dependent kinase 2/cyclin A (Homo sapiens, UniProt P24941)
# Description: Inhibition of Cyclin A-cyclin-dependent kinase 2
row,IC50 [nM],Compound
1,510,NC(=O)c1nn(-c2ccc(OC(F)(F)F)cc2)c2c1CCc1[nH]ncc1-2
2,1600,NC(=O)c1nn(-c2cccnc2)c2c1CCc1[nH]ncc1-2
3,1750,COc1ccc(-n2nc(C#N)c3ccc4[nH]ncc4c32)cc1
4,200,C=CCONC(=O)c1nn(S(=O)(=O)NCCCC)c2c1ccc1[nH]ncc12
5,87,CC(C)CC1Cc2c[nH]nc2-c2c[nH]nc21 (configuration not stated)
6,2100,COc1ccc(-n2nc(C(=O)O)c3c2-c2cn[nH]c2CC3)cc1
7,20,CNS(=O)(=O)c1ccc(-n2nc(C(N)=O)c3ccc4[nH]ncc4c32)cc1
8,2100,COc1ccc(-n2nc(C(=O)NN)c3c2-c2cn[nH]c2CC3)cc1
9,600,CCCCNS(=O)(=O)n1nc(C(=O)NC)c2c1-c1c[nH]nc1CC2
10,1200,CCCCNS(=O)(=O)n1nc(C(=O)O)c2c1-c1c[nH]nc1CC2
11,30,CS(=O)(=O)c1ccc(-n2nc(C(N)=O)c3c2-c2cn[nH]c2CC3)cc1
12,75,NC(=O)c1nn(-c2ccc(C3=NCC=N3)cc2)c2c1ccc1[nH]ncc12
13,190,N#Cc1ccc(-n2nc(C(N)=O)c3c2-c2cn[nH]c2CC3)cc1
14,8100,CCOC(=O)c1nn(-c2ccc(OC)cc2)c2c1CCc1[nH]ncc1-2
15,610,CCCCNS(=O)(=O)n1nc(C(=O)NC)c2ccc3[nH]ncc3c21
16,250,NC(=O)c1nn(-c2ccc(C3=NCC=N3)cc2)c2c1CCc1n[nH]cc1-2
17,> 10000,COc1ccc(-n2nc(N)c3ccc4[nH]ncc4c32)cc1

row,IC50 [nM],Compound
1,210,COc1ccc(-n2nc(C(=O)NN)c3ccc4[nH]ncc4c32)cc1
2,150,CN1CCN(S(=O)(=O)c2ccc(-n3nc(C(N)=O)c4ccc5[nH]ncc5c43)cc2)CC1
3,80,NC(=O)c1nn(-c2ccc(C(F)(F)F)cc2)c2c1CCc1[nH]ncc1-2
4,160,NC(=O)c1nn(-c2ccc(Cl)cc2)c2c1CCc1[nH]ncc1-2
5,4500,C=CCONC(=O)c1nn(-c2ccc(OC)cc2)c2c1CCc1[nH]ncc1-2
6,40,CNS(=O)(=O)c1ccc(-n2nc(C(N)=O)c3c2-c2cn[nH]c2CC3)cc1
7,1150,NC(=O)c1nn(CCO)c2c1CCc1[nH]ncc1-2
8,210,CCCCNS(=O)(=O)n1nc(C(N)=O)c2c1-c1c[nH]nc1CC2
9,2850,C=CCONC(=O)c1nn(S(=O)(=O)NCCCC)c2c1CCc1n[nH]cc1-2
10,7500,CCOC(=O)c1nn(-c2ccc(OC)cc2)c2c1ccc1[nH]ncc12
11,8500,CCOC(=O)c1nn(-c2ccc(C)cc2)c2c1CCc1[nH]ncc1-2
12,900,CC(=O)c1nn(-c2ccc(C)cc2)c2c1CCc1[nH]ncc1-2
13,> 10000,CN1CCN(S(=O)(=O)c2ccc(-n3nc(C(N)=O)c4c3-c3cn[nH]c3CC4)cc2)CC1
14,10000,CCCCNS(=O)(=O)c1ccc(-n2nc(C(=O)OCC)c3c2-c2cn[nH]c2CC3)cc1
15,9,Cc1cccc(-n2nc(C(N)=O)c3ccc4[nH]ncc4c32)c1
16,210,COc1ccc(-n2nc(C(=O)O)c3ccc4[nH]ncc4c32)cc1
17,2,CCCCNS(=O)(=O)n1nc(C(N)=O)c2ccc3[nH]ncc3c21
